In patent US20260191793A1, “HBV SPECIFIC EXOSOMES AND USES THEREOF” (priority 2022, published 2026):
Entries after “also recorded” stand apart in the source; their conditions may differ.

Tests used:
HBV DNA [1] = assay: Mismatch sensitive T7 endonuclease 1 (T7E1) assay in HepDE19 cells; assay type: cell-based, Hepatitis B virus (HBV); settings: HepDE19 cells transfected for 3 days, T7E1 digestion of PCR products
Text: DNA cleavage by CRISPR/Cas9 results in double-strand breaks (DSBs), which are repaired primarily by the non-homologous end-joining (NHEJ) pathway, resulting in indel mutations and transcriptionally active episomal variants. Thus, detecting DNA cleavage and indel mutations following CRISPR/Cas9-mediated DNA damage and repair is important for confirming its gene-editing effects. To validate the capability of the synthetic gRNA/Cas9 RNPs to introduce indel mutation and cleavage in HBV DNA in HepDE19 cells, a mismatch sensitive T7 endonuclease (T7E1) assay-was performed, following transfection of HepDE19 cells with gRNA5, gRNA9, gRNA5+gRNA9, or gRNAc RNPs. This assay allows for the detection of specific cleavage sites or indel mutations in the target gene (HBV DNA) in the treated cells. The indel mutagenesis was determined based on the DNA fragments detected after the gRNA/Cas9-mediated cleavage of the HBV DNA following T7E1 digestion of the specific PCR products.
The HBV DNA sequences surrounding gRNA-binding sites were amplified by PCR. […]
DNA cleavage by CRISPR/Cas9 results in double-strand breaks (DSBs), which are primarily repaired by the non-homologous end joining (NHEJ) repair pathway, resulting in gene mutations. […] The mutagenesis was determined based on the DNA fragments detected after the gRNA/Cas9-mediated cleavage of the HBV DNA following T7E1 digestion.

HBV DNA [2] = assay: Sanger sequencing of HBV DNA fragments from treated HepDE19 cells; assay type: cell-based, Hepatitis B virus (HBV); settings: compared with gRNAc
Experimental: Following treatment with gRNA5/Cas9+gRNA9/Cas9, or gRNAc/Cas9 RNPs, genomic DNA was isolated from HepDE19 cells using the PureLink Genomic DNA Mini Kit (Cat #K182001, Invitrogen). DNA fragments containing the gRNA target sequences were amplified by qPCR using primers flanking the cleavage sites. The PCR products were confirmed using 1% agarose gel electrophoresis and purified using a QIAquick gel extraction kit (Cat #28704, Qiagen). Sequencing of the extracted DNA fragments was performed by GENEWIZ (Chelmsford, MA) using Sanger's sequencing method. The PCR primers used for the detection of gRNA5 and gRNA9 flanking regions are described above. The sequencing readouts were aligned with the gRNAc, which was compared to the HBV sequence in the database (ayw strain, Genbank accession number: NC_003977.2). The Chromas's software (Technelysium DNA sequencing software) was used to read the nucleotide peaks, and the alignment of two or more sequences was performed using the BLAST tool from NCBI-BLAST to compare the nucleotide sequences.
Following a successful CRISPR/Cas9 cleavage, DNA damage repair pathways are initiated, and nucleotide mutagenesis occurs in the targeted genome, introducing substitution mutations. […]

Sequence | cleaved products / DSBs in HBV DNA after T7E1 treatment (HBV DNA [1]) | mutations at gRNA-targeted sites of HBV DNA (Sanger sequencing) (HBV DNA [2])
GGTCTCCATGCGACGTGCAGNGG [gRNA9] | cleaved products were observed; also recorded: DSBs were introduced | specific DNA indel mutations
GTTATCGCTGGATGTGTCTGNGG (guide GUUAUCGCUGGAUGUGUCUGNGG; complexed with Cas9 protein, chemistry not fully specified) [gRNA5, tested as synthetic gRNA/Cas9 RNP] | cleaved products were observed; also recorded: DSBs were introduced | specific DNA indel mutations
